Values quoted from earlier work as cited in PubChem BioAssay AID1259409 (Chemical Carcinogenesis Research Information System (CCRIS), 2018).

Tested on: rodent chemically induced tumor inhibition, incidence and multiplicity
Experiment: CCRIS tumor inhibitor studies
Conditions: Dose [Inhibitor]: 0, Route [Inhibitor]: ORAL

## Oc1cccc(O)c1
Carcinogen: N-BIS(2-HYDROXYPROPYL)NITROSAMINE, 53609-64-6, 0.8% IN DIET FOR 30 WK BEGINNING POST CARCINOGEN TREATMENT (STUDY DURATION: 32 WK), Species: RAT, Strain/Sex: F344/MALE, Target Tissue: Type of Lesion: LUNG: ADENOMA, Dose [Carcinogen]: 0.1% IN DRINKING WATER FOR 2 WK, Promoter: NONE USED
  tumour outcome (control, treated, inhibition, significance): 100%, 90%, 10%, not calculated
Carcinogen: N-BIS(2-HYDROXYPROPYL)NITROSAMINE, 53609-64-6, 0.8% IN DIET FOR 30 WK BEGINNING POST CARCINOGEN TREATMENT (STUDY DURATION: 32 WK), Species: RAT, Strain/Sex: F344/MALE, Target Tissue: Type of Lesion: THYROID: ADENOMA, Dose [Carcinogen]: 0.1% IN DRINKING WATER FOR 2 WK, Promoter: NONE USED
  tumour outcome (control, treated, inhibition, significance): 20%, 30%, -50%, not calculated
Carcinogen: N-BIS(2-HYDROXYPROPYL)NITROSAMINE, 53609-64-6, 0.8% IN DIET FOR 30 WK BEGINNING POST CARCINOGEN TREATMENT (STUDY DURATION: 32 WK), Species: RAT, Strain/Sex: F344/MALE, Target Tissue: Type of Lesion: THYROID: CARCINOMA, Dose [Carcinogen]: 0.1% IN DRINKING WATER FOR 2 WK, Promoter: NONE USED
  tumour outcome (control, treated, inhibition, significance): 20%, 25%, -25%, not calculated
Carcinogen: N-ETHYL-N-HYDROXYETHYLNITROSAMINE, 13147-25-6, 0.8% IN DIET FOR 36 WK BEGINNING 1 WK POST CARCINOGEN TREATMENT (STUDY DURATION: 40 WK), Species: RAT, Strain/Sex: WISTAR/MALE, Target Tissue: Type of Lesion: KIDNEY: MICROADENOMA, Dose [Carcinogen]: 0.1% IN DRINKING WATER FOR 3 WK, Promoter: NONE USED
  tumour outcome (control, treated, inhibition, significance): 11/17 (65%), 12/16 (75%), -15%, not significant
Carcinogen: N-ETHYL-N-HYDROXYETHYLNITROSAMINE, 13147-25-6, 0.8% IN DIET FOR 36 WK BEGINNING 1 WK POST CARCINOGEN TREATMENT (STUDY DURATION: 40 WK), Species: RAT, Strain/Sex: WISTAR/MALE, Target Tissue: Type of Lesion: KIDNEY: RENAL CELL TUMOR, Dose [Carcinogen]: 0.1% IN DRINKING WATER FOR 3 WK, Promoter: NONE USED
  tumour outcome (control, treated, inhibition, significance): 14/17 (82%), 13/16 (81%), 1%, not significant
Carcinogen: N-ETHYL-N-HYDROXYETHYLNITROSAMINE, 13147-25-6, 0.8% IN DIET FOR 36 WK BEGINNING 1 WK POST CARCINOGEN TREATMENT (STUDY DURATION: 40 WK), Species: RAT, Strain/Sex: WISTAR/MALE, Target Tissue: Type of Lesion: LIVER: HEPATOCELLULAR ADENOMA, Dose [Carcinogen]: 0.1% IN DRINKING WATER FOR 3 WK, Promoter: NONE USED
  tumour outcome (control, treated, inhibition, significance): 10/17 (59%), 7/16 (44%), 25%, not significant
Carcinogen: N-ETHYL-N-HYDROXYETHYLNITROSAMINE, 13147-25-6, 0.8% IN DIET FOR 36 WK BEGINNING 1 WK POST CARCINOGEN TREATMENT (STUDY DURATION: 40 WK), Species: RAT, Strain/Sex: WISTAR/MALE, Target Tissue: Type of Lesion: LIVER: HEPATOCELLULAR CARCINOMA, Dose [Carcinogen]: 0.1% IN DRINKING WATER FOR 3 WK, Promoter: NONE USED
  tumour outcome (control, treated, inhibition, significance): 7/17 (41%), 3/16 (19%), 54%, not significant
Carcinogen: N-NITROSOBIS(2-OXOPROPYL)AMINE, 60599-38-4, 1.5% IN DIET FOR 16 WK BEGINNING 2 WK POST CARCINOGEN TREATMENT (STUDY DURATION: 20 WK), Species: HAMSTER, Strain/Sex: SYRIAN/FEMALE, Target Tissue: Type of Lesion: GALL BLADDER: ADENOMA, Dose [Carcinogen]: 70 MG/KG IN SALINE FOLLOWED 2 WK LATER BY SECOND TREATMENT
  tumour outcome (control, treated, inhibition, significance): 9/18 (50%), 10/16 (62%), -24%, not calculated
Carcinogen: N-NITROSOBIS(2-OXOPROPYL)AMINE, 60599-38-4, 1.5% IN DIET FOR 16 WK BEGINNING 2 WK POST CARCINOGEN TREATMENT (STUDY DURATION: 20 WK), Species: HAMSTER, Strain/Sex: SYRIAN/FEMALE, Target Tissue: Type of Lesion: GALL BLADDER: CARCINOMA, Dose [Carcinogen]: 70 MG/KG IN SALINE FOLLOWED 2 WK LATER BY SECOND TREATMENT
  tumour outcome (control, treated, inhibition, significance): 1/18 (6%), 1/16 (6%), 0%, not significant
Carcinogen: N-NITROSOBIS(2-OXOPROPYL)AMINE, 60599-38-4, 1.5% IN DIET FOR 16 WK BEGINNING 2 WK POST CARCINOGEN TREATMENT (STUDY DURATION: 20 WK), Species: HAMSTER, Strain/Sex: SYRIAN/FEMALE, Target Tissue: Type of Lesion: LIVER: CHOLANGIOCARCINOMA, Dose [Carcinogen]: 70 MG/KG IN SALINE FOLLOWED 2 WK LATER BY SECOND TREATMENT
  tumour outcome (control, treated, inhibition, significance): 16/18 (89%), 12/16 (75%), 16%, not calculated
Carcinogen: N-NITROSOBIS(2-OXOPROPYL)AMINE, 60599-38-4, 1.5% IN DIET FOR 16 WK BEGINNING 2 WK POST CARCINOGEN TREATMENT (STUDY DURATION: 20 WK), Species: HAMSTER, Strain/Sex: SYRIAN/FEMALE, Target Tissue: Type of Lesion: LIVER: NEOPLASTIC NODULE, Dose [Carcinogen]: 70 MG/KG IN SALINE FOLLOWED 2 WK LATER BY SECOND TREATMENT
  tumour outcome (control, treated, inhibition, significance): 18/18 (100%), 16/16 (100%), 0%, not significant
Carcinogen: N-NITROSOBIS(2-OXOPROPYL)AMINE, 60599-38-4, 1.5% IN DIET FOR 16 WK BEGINNING 2 WK POST CARCINOGEN TREATMENT (STUDY DURATION: 20 WK), Species: HAMSTER, Strain/Sex: SYRIAN/FEMALE, Target Tissue: Type of Lesion: PANCREAS: ADENOCARCINOMA, Dose [Carcinogen]: 70 MG/KG IN SALINE FOLLOWED 2 WK LATER BY SECOND TREATMENT
  tumour outcome (control, treated, inhibition, significance): 14/18 (78%), 10/16 (63%), 19%, not calculated
